Assay results taken from paper PMC8185074, “Anchor extension: a structure-guided approach to design cyclic peptides targeting enzyme active sites” (Nature Communications, 2021).
Peptide text beside a SMILES is read from it.

Legend:
HDAC6 = biological target: T1, HDAC6 (Homo sapiens, UniProt Q9UBN7); assay: HDAC6 inhibition, full IC50 measurement (Reaction Biology; fluorogenic p53 peptide RHKK(Ac)AMC); assay type: biochemical
T1 construct: purchased Reaction Biology Corporation (assay run by the CRO)
T1 sequence (Q9UBN7 1-1215): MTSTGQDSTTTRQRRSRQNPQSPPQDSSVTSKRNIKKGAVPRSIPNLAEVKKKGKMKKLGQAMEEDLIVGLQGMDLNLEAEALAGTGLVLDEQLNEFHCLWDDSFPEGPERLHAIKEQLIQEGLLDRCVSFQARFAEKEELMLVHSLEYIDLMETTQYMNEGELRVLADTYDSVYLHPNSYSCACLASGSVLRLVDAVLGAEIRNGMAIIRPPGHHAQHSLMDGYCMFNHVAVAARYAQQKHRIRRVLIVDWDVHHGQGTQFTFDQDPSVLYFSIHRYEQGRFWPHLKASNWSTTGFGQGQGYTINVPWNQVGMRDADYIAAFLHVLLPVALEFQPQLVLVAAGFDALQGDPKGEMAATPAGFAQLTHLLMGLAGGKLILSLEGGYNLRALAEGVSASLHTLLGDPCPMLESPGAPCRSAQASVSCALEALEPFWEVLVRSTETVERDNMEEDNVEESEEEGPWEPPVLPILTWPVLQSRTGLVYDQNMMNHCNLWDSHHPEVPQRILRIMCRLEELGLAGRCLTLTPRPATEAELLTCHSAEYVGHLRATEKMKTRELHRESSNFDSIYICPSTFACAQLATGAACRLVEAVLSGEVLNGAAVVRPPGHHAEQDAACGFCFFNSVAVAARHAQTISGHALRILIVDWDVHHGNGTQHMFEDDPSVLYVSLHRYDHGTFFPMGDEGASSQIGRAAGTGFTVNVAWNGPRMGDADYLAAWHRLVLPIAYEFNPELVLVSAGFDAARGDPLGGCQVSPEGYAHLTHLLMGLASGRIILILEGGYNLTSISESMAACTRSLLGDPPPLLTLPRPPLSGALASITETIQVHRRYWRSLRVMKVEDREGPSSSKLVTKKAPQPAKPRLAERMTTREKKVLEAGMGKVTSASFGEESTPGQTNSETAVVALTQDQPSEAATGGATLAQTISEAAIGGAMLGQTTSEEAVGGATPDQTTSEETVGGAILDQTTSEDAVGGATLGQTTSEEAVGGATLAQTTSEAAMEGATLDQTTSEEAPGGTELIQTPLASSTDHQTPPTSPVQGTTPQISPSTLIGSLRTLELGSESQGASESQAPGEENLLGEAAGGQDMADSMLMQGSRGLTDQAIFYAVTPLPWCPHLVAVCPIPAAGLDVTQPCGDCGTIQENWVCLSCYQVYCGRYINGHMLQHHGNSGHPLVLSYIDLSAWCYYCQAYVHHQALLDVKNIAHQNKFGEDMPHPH
Method in brief: (§1)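 Test peptides were dispensed acoustically with enzyme in 50 mM Tris-HCl pH 8.0, 137 mM NaCl, 2.7 mM KCl, 1 mM MgCl2, 1 mg/ml BSA and 1% DMSO. After adding 50 μM RHKK(Ac)AMC, reactions ran 1 h at 30 °C, then developer was added.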

HDAC3 = biological target: T2, HDAC3 (Homo sapiens, UniProt O15379); assay: HDAC3 inhibition, full IC50 measurement (Reaction Biology; fluorogenic p53 peptide RHKK(Ac)AMC); assay type: biochemical
T2 construct: purchased Reaction Biology Corporation (assay run by the CRO)
T2 sequence (O15379 whole entry): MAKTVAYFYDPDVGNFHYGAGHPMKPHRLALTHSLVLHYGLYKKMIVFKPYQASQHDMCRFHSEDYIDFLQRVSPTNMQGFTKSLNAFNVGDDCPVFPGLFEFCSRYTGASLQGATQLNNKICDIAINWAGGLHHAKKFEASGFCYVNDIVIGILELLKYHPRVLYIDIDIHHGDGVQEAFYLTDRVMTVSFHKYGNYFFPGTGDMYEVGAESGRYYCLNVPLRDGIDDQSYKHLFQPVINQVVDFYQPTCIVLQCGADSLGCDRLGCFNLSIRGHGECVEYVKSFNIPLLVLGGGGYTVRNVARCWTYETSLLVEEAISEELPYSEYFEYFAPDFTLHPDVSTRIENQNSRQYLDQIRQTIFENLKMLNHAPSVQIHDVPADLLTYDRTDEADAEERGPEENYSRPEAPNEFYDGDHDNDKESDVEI
T2 sequence (Q9Y618 395-489 partner limits assumed): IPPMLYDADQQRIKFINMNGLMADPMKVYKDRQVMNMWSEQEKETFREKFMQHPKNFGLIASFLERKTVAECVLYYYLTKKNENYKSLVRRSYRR
Method in brief: as §1

N[C@@H](CCCCCS)C(=O)O [SHA, 2S-2-amino-7-sulfanylheptanoic acid]
HDAC6 inhibition potency in words (HDAC6): low micro-molar to high nano-molar affinities
HDAC6 raw activity signal (HDAC6; Conc. 1.00E-05 M): 33328
HDAC6 raw activity signal (HDAC6; Conc. 1.11E-06 M): 230710
HDAC6 raw activity signal (HDAC6; Conc. 1.23E-07 M): 527992
HDAC6 raw activity signal (HDAC6; Conc. 1.37E-08 M): 589576
HDAC6 raw activity signal (HDAC6; Conc. 1.52E-09 M): 605039
HDAC6 raw activity signal (HDAC6; Conc. 3.33E-06 M): 100537
HDAC6 raw activity signal (HDAC6; Conc. 3.70E-07 M): 381738
HDAC6 raw activity signal (HDAC6; Conc. 4.12E-08 M): 574853
HDAC6 raw activity signal (HDAC6; Conc. 4.57E-09 M): 596934
HDAC6 raw activity signal (HDAC6; Conc. 5.08E-10 M): 614098
IC50 (HDAC6; read-out: HDAC6 IC50): 600 nM
HDAC3 inhibition potency in words (HDAC3): low micro-molar to high nano-molar affinities
HDAC3 raw activity signal (HDAC3; Conc. 1.00E-05 M): 305013
HDAC3 raw activity signal (HDAC3; Conc. 1.11E-06 M): 772070
HDAC3 raw activity signal (HDAC3; Conc. 1.23E-07 M): 916440
HDAC3 raw activity signal (HDAC3; Conc. 1.37E-08 M): 1023518
HDAC3 raw activity signal (HDAC3; Conc. 1.52E-09 M): 969054
HDAC3 raw activity signal (HDAC3; Conc. 3.33E-06 M): 650146
HDAC3 raw activity signal (HDAC3; Conc. 3.70E-07 M): 835487
HDAC3 raw activity signal (HDAC3; Conc. 4.12E-08 M): 896484
HDAC3 raw activity signal (HDAC3; Conc. 4.57E-09 M): 995503
HDAC3 raw activity signal (HDAC3; Conc. 5.08E-10 M): 959845

C[C@H](O)[C@H]1NC(=O)[C@H](Cc2c[nH]c3ccccc23)NC(=O)[C@H](CCCCCS)NC(=O)[C@H](CCCCN)NC(=O)[C@@H](CC(=O)O)NC(=O)[C@@H](CCCCN)NC(=O)[C@@H](CO)NC(=O)[C@H](CC(N)=O)NC(=O)[C@H](CC(=O)O)NC1=O [des2.1.0, SHA-Trp-dThr-Asp-Asn-dSer-dLys-dAsp-Lys] (HELM PEPTIDE1{D.N.[dS].[dK].[dD].K.[O=C([C@H](CCCCCS)N[*:1])[*:2]].W.[dT]}$PEPTIDE1,PEPTIDE1,1:R1-9:R2$$$V2.0)
HDAC6 activity raw data (signal) (HDAC6; Conc. 1.00E-05 M, t1): 11243
HDAC6 activity raw data (signal) (HDAC6; Conc. 1.00E-05 M, t2): 1739
HDAC6 activity raw data (signal) (HDAC6; Conc. 1.11E-06 M, t1): 28172
HDAC6 activity raw data (signal) (HDAC6; Conc. 1.11E-06 M, t2): 21097
HDAC6 activity raw data (signal) (HDAC6; Conc. 1.23E-07 M, t1): 158713
HDAC6 activity raw data (signal) (HDAC6; Conc. 1.23E-07 M, t2): 131097
HDAC6 activity raw data (signal) (HDAC6; Conc. 1.37E-08 M, t1): 435775
HDAC6 activity raw data (signal) (HDAC6; Conc. 1.37E-08 M, t2): 375237
HDAC6 activity raw data (signal) (HDAC6; Conc. 1.52E-09 M, t1): 580209
HDAC6 activity raw data (signal) (HDAC6; Conc. 1.52E-09 M, t2): 526073
HDAC6 activity raw data (signal) (HDAC6; Conc. 3.33E-06 M, t1): 12962
HDAC6 activity raw data (signal) (HDAC6; Conc. 3.33E-06 M, t2): 9723
HDAC6 activity raw data (signal) (HDAC6; Conc. 3.70E-07 M, t1): 70613
HDAC6 activity raw data (signal) (HDAC6; Conc. 3.70E-07 M, t2): 63583
HDAC6 activity raw data (signal) (HDAC6; Conc. 4.12E-08 M, t1): 283586
HDAC6 activity raw data (signal) (HDAC6; Conc. 4.12E-08 M, t2): 230477
HDAC6 activity raw data (signal) (HDAC6; Conc. 4.57E-09 M, t1): 537641
HDAC6 activity raw data (signal) (HDAC6; Conc. 4.57E-09 M, t2): 486475
HDAC6 activity raw data (signal) (HDAC6; Conc. 5.08E-10 M, t1): 609077
HDAC6 activity raw data (signal) (HDAC6; Conc. 5.08E-10 M, t2): 536924
HDAC3 activity raw data (signal) (HDAC3; Conc. 1.00E-05 M, t1): 14719
HDAC3 activity raw data (signal) (HDAC3; Conc. 1.00E-05 M, t2): 13801
HDAC3 activity raw data (signal) (HDAC3; Conc. 1.11E-06 M, t1): 92063
HDAC3 activity raw data (signal) (HDAC3; Conc. 1.11E-06 M, t2): 96957
HDAC3 activity raw data (signal) (HDAC3; Conc. 1.23E-07 M, t1): 462933
HDAC3 activity raw data (signal) (HDAC3; Conc. 1.23E-07 M, t2): 478168
HDAC3 activity raw data (signal) (HDAC3; Conc. 1.37E-08 M, t1): 1054714
HDAC3 activity raw data (signal) (HDAC3; Conc. 1.37E-08 M, t2): 1114131
HDAC3 activity raw data (signal) (HDAC3; Conc. 1.52E-09 M, t1): 1368847
HDAC3 activity raw data (signal) (HDAC3; Conc. 1.52E-09 M, t2): 1246343
HDAC3 activity raw data (signal) (HDAC3; Conc. 3.33E-06 M, t1): 35860
HDAC3 activity raw data (signal) (HDAC3; Conc. 3.33E-06 M, t2): 35981
HDAC3 activity raw data (signal) (HDAC3; Conc. 3.70E-07 M, t1): 254333
HDAC3 activity raw data (signal) (HDAC3; Conc. 3.70E-07 M, t2): 260454
HDAC3 activity raw data (signal) (HDAC3; Conc. 4.12E-08 M, t1): 754531
HDAC3 activity raw data (signal) (HDAC3; Conc. 4.12E-08 M, t2): 801621
HDAC3 activity raw data (signal) (HDAC3; Conc. 4.57E-09 M, t1): 1235523
HDAC3 activity raw data (signal) (HDAC3; Conc. 4.57E-09 M, t2): 1319114
HDAC3 activity raw data (signal) (HDAC3; Conc. 5.08E-10 M, t1): 1390666
HDAC3 activity raw data (signal) (HDAC3; Conc. 5.08E-10 M, t2): 1409656
